For experiment [1], the system named is BM CD34+-derived cells. As to the kind of experiment: Micropipette aspiration of CD34+-derived cells. It counts as cell-based, human. How it is done: Cells from BMCD34^+, cultured in SCF and Tpo between 3 and 8 days, were treated with 20 μM blebbistatin for 30 min to 1 h, followed by micropipette analysis. Capillary tubes of 1.0-mm inner diameter (World Precision Instruments) were pulled into micropipettes using a Flaming-Brown Micropipette Puller (Sutter Instrument) and cut further using a deFonbrune-type microforge (Vibratome). The average micropipette diameter was around 3 μm. Micropipettes were attached to a dual-stage water manometer with reservoirs of adjustable height. Suction was applied by a syringe, and the corresponding pressure was measured by pressure transducer (Validyne), calibrated by a mercury U-tube manometer. Pressures for different experiments ranged from 0.5 to 20 kPa. In some cases, cells were labeled with a very low dose (10 nM) of fluorescent BODIPY-Taxol (Invitrogen) for 1 h at 37° C. to visualize the initial stage of microtubule polymerization during micropipette aspiration.

Experiment [2] concerns BM CD34+-derived cells. As to the kind of experiment: Live cell imaging of cell division. It counts as cell-based, human. The procedure:
At least 20,000 BM CD34^+-derived cells were put into Ibidi μ-slide VI (Ibidi GmbH) in cell culture medium. Analysis was done in an insulated chamber maintained at 37° C., 5% CO2. A series of images were collected every 5 min for 18 to ˜24 h with an Olympus IX70 inverted microscope with 300 W Xenon lamp illumination using 10× or 20× objectives under bright field. Image stacks were further analyzed by ImageJ to analyze cell division with or without blebbistatin treatment.

Experiment [3] relates to human-CD41+ platelets in NSG mice. As to the kind of experiment: In vivo human platelet generation after intratibial transplantation into NSG mice. More on the design: species or system mouse. The procedure: Eight- to 10-wk-old nonobese diabetic (NOD)/SCID/IL-2Rγ−/− (NSG) mice were obtained and maintained in-house at the Penn Xenograft Core Facility. Before transplantation (˜24 h), mice received a sublethal dose of 320 cGy total body irradiation. Cultured human CD34^+-derived cells (0.5−3×10^5 uncultured BM CD34^+ equivalent) with or without drug treatment was suspended in 20 μL PBS and injected directly into the tibia. Peripheral blood (PB) was then obtained from the transplanted mice via retroorbital bleeding and human platelet quantification was done at indicated times. To calculate human platelet in NSG circulation, the total platelet concentration count was done by Hemavet (Drew Scientific), and 2 μL of PB per staining sample was washed in the presence of PGE1 inhibitor (Sigma) and resuspended in PBS. Cells were incubated with mouse Fc-blocker (BD Biosciences) for 5 min, followed by addition of mouse anti-human CD41-FITC and rat anti-mouse CD41-PE antibodies (eBioscience). After 30 min incubation at room temperature, cells were fixed by addition of 0.5% paraformaldehyde and analyzed by flow cytometry within 2 h. Platelets were gated on based on forward and side scatters, and at least 50,000 events were acquired. Human platelet concentration was obtained by multiplying the total platelet count by the percentage of human CD41-FITC of the total CD41^+ platelets (mouse plus human). Microscopic determination and isotype control with mixing known number of human platelets indicate the threshold detection limit of 0.001%. The total human platelet number in each transplanted NSG mouse was estimated by assuming that the average total mouse blood is ˜1.5 mL (Riches et al., 1973, J Physiol, 228:279-284). All animal experiments were performed in accordance with institutional guidelines approved by the ethical committee from the University of Pennsylvania.

The subject of experiment [4] is CD34+-derived cells (HSC, MPP, CPP). As to the kind of experiment: HSC/P numbers on FN-coated gels of different elasticity. Conditions: drug-treated cells. It counts as cell-based, human. The procedure: 15-18 mm glass coverslips were treated in order with ethanol, RCA solution (1:1:3 for 15N NH4OH:30% H2O2:dH2O), methylene chloride and 0.1% allyltrichlorosilane solution. To control gel's stiffness, n,n′ methylene-bis-acrylamide and the acrylamide solution was mixed at the ratio of 0.07%:3% for soft gels (0.3 kPa), or the ratio of 0.3%:8% for stiff gels (34 kPa), final concentrations in PBS. ˜25 μl of the mixed solution was polymerized on a coverslip with 10% ammonium persulfate and n,n,n′,n′-tetramethylethylenediamine. During polymerization, gels were covered with another coverslip to obtain a uniform gel surface with the final thickness of ˜100 μm. Different concentrations of FN were then cross-linked with polymerized gels using sulfo-SANFAH (Pierce, Rockford, Ill.) by UV-crosslinking Thickness of gels and relative FN concentrations were verified by confocal microscopy. It is assumed that most FN from the solution was attached to gels (>70%). FN-coated gels were then treated with UV in PBS for at least 1 hr before use in cell culture.

The subject of experiment [5] is SCID-repopulating cells in NSG mice. As to the kind of experiment: Engraftment in NSG mice and limiting dilution analysis. The settings on record: mouse, in vivo. How it is done: BM-derived CD34^+ cells were cultured in SCF and Tpo (100 ng/ml each) for 4 days and treated under control conditions or Bleb (20 μM) for 3 days. The cells were injected intra-tibially into sub-lethally irradiated (250 rads) 6-10-week-old NSG mice within 24 hr after irradiation. Engraftment was assessed by analysis of blood or bone marrow using anti-mouse and anti-human CD47 antibodies using flow cytometry. The mice were sacrificed after sixteen weeks post-transplantation. For secondary engraftment, 50% of the bone marrow from femurs and tibias from each mouse was transplanted into one sub-lethally irradiated NSG mouse. 16 weeks after transplantation, blood and bone marrow were harvested from the mice and analyzed by flow cytometry. All animal experiments were done in accordance with institutional guidelines approved by the ethical committee from the University of Pennsylvania. The human repopulation HSC frequency was quantified by extreme limiting dilution analysis (ELDA) software (Hu and Smyth, 2009)

The structures appear in SMILES notation. Where only a bound is given, the exact number is not on record here.

On to `Cc1ccc2c(c1)C(=O)C1(O)CCN(c3ccccc3)C1=N2` (racemic) [blebbistatin, (±)-blebbistatin], for which, in the experiment on BM CD34+-derived cells [1] (20 μM), the “median fragmentation threshold (effective membrane tension)” value was around 1 mN/m. Moreover, the “compliance, median slope of aspiration length vs tension” value with BM CD34+-derived cells [1] (20 μM, unfragmented cells) is given as 3.79±0.84 (mN/m)^−1. Also, in the experiment on BM CD34+-derived cells [1] (after 30 min), the increase in compliance entry was “approximately four” and the “treated cells that fragment” value is listed as 40%. Besides, the “cells showing reversal of cytokinesis” value in the experiment with BM CD34+-derived cells [2] is given as around 80%. In experiment [3] (Phase-I and Phase-II of circulation), the “human plts per transplanted CD41+ cell vs untreated” value is given as “about 4 fold”. In experiment [3] (Phase-II decay, regardless of drug treatment), this molecule registered a plt half-life of around 37 h. The “in vivo human platelets per transplanted CD41+ cell vs untreated” value in experiment [3] (cells treated ex vivo 3 d, day 3 posttransplant) is on record as “about fourfold”. In addition, in experiment [4], the “CPP number soft vs stiff, mean” value is recorded as 0.9±0.1; the “MPP number soft vs stiff, mean” value was determined as 1.0±0.1; the “increase of HSC-to-MPP ratio with increasing FN density” value was above 2 fold; the “ratio of HSC numbers soft vs stiff, mean” value was found to be 1.1±0.2. In experiment [5], the “increase in HSC frequency in terms of total cell number injected” value was found to be 4 fold.

The values above are taken from patent publication US9920295B2, “Bioreactor for isolation of rare cells and methods of use” (The Trustees of the University of Pennsylvania, priority 2012, dated 2018).
